Results: patent US10973819B2, “Small molecules inhibitors of RAD51” (The University of Chicago, priority 2016, dated 2021)
“Also recorded” adds a separate entry of the source. Like-named read-outs stand apart in the source and are kept apart here.

What was measured:
293-DR-GFP cells = experiment: DR-GFP assay, quantitation of HR efficiency in cells; assay type: cell-based, human; details: for inhibitory activity in the cell-based HR (DR-GFP) assay relative to 1 and 8, in words: 24-hour incubation, FIG. 5a
Description: 293-DR-GFP cells were electroporated in Opti-MEM with 37.5 μg/ml pCBASce in 0.4 cm cuvettes at 325 V, 975 μF and seeded into 6-well plates with 2.5 ml complete DMEM+0.5% DMSO with compound and allowed to outgrow for 24 hours. Following outgrowth, cells were harvested and suspended in PBS with 1 μg/ml 7-aminoactinomycin D (7-AAD) and analyzed on a BD FACSCalibur flow cytometer. Dead and apoptotic cells were gated out based on size, shape, and 7-AAD staining and the fraction of GFP-positive cells among the population of live cells was determined.
The DR-GFP assay was used to test the ability of representative compounds to inhibit HR in human cells.^27 Briefly, cells containing the chromosomal DR-GFP reporter were transfected with a plasmid that expresses I-SceI, a rare-cutting endonuclease that makes a DSB within the DR-GFP cassette. Compounds were added at the time of transfection and the cells were outgrown for 24 hours. For longer outgrowth periods such as 48 hours, cells regained some HR activity. To overcome this technical limitation, the relatively early time point of 24 hours was selected to describe the in vivo effects of these compounds.

RAD51 [1] = molecular target: T1, RAD51 (Homo sapiens, UniProt Q06609); experiment: Gel-based D-loop assay; assay type: biochemical; details: for IC50: read-out: D-Loops IC50; for D-loop inhibitory activity, in words: summary of Tables 2 and 3
T1 sequence (Q06609 1-339): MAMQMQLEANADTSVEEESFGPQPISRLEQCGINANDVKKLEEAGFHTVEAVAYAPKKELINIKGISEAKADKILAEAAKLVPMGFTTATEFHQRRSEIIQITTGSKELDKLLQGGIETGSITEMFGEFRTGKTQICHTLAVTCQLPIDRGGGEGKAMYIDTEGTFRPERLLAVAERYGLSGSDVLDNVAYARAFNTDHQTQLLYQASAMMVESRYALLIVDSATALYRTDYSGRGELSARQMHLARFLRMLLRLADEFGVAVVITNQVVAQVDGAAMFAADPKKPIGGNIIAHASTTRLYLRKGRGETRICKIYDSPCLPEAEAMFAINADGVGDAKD
Description: Human RAD51 in reaction buffer was combined with compound in […] DMSO, incubated at 37° C. for 10 min, and then 1 μl of 5′-^32P-labeled 90-mer ssDNA (5′-[…]) with homology to the plasmid pRS306 ^34 was added and the reaction was incubated at 37° C. for an additional 5 minutes. 1 μl of supercoiled pRS306 was then added to the reaction and incubated at 37° C. for 20 minutes; at this point the reaction consisted of 25 mM HEPES-NaOH (pH 7.0), 1 mM ATP, 1 mM MgCl2, 1 mM DTT, 1.5 μM BSA, 4.5% DMSO, 0.5 μM RAD51, 11 mM NaCl, 1% glycerol, 20 nM ssDNA, and 5 nM pRS306. The reactions were de-proteinized with 0.8% SDS and 0.8 mg/ml proteinase K, mixed with gel loading buffer, and run on a 0.9% agarose/1×TAE gel, which was dried and exposed to a phosphor screen overnight and imaged on a Storm 860 PhosphorImager. Compound IC50 values were obtained by least-squares regression fitting of appropriate linear, log, or sigmoid dose-response models to the data, with the standard error indicated.
To improve upon the D-loop inhibitory activity, medicinal chemical studies were undertaken to optimize 8. First, different functional groups were appended to rings A and B as substituents, including alkyl groups of different sizes, electron withdrawing/donating groups, and hydrogen bond donor/acceptor groups. Next, replacement of the phenyl ring B with different heterocycles or other saturated/unsaturated rings was investigated in order to probe its role. For each of the prepared compounds, the gel-based D-loop assay and the microplate-based DNA binding assay were used to characterize the biochemical activities.

[2] = Stability on exposure to air at room temperature; assay type: physicochemical; details: slowly oxidized over time to compound 8
From the text: These experimental results signify that compound 7 and 1 are distinct compounds. Compound 7 was not stable when exposed to air at room temperature; instead, it slowly oxidized over time to compound 8 (Scheme 2). Additionally, some of the oxidized product 8 was always produced during the preparation of compound 7.

RAD51 [3] = molecular target: T1, RAD51; experiment: Fluorescence polarization-based DNA binding assay (RAD51-ssDNA binding); assay type: biochemical; details: for Emax: read-out: ssDNA binding Max effect; for influence on RAD51-ssDNA binding, in words: summary of Tables 2 and 3
Description: The fluorescence polarization-based DNA binding assay and purification of human RAD51 used for this assay was performed as previously described with a few modifications.^23 Reactions were carried out in black 384-well polystyrene plates. In each well, RAD51 protein was combined with reaction buffer and varying concentrations of compound in DMSO in an initial volume of 40 μl and incubated at 37° C. for 40 minutes. Then, 10 μl of reaction buffer containing fluorescently-labeled ssDNA substrate (5′-Alexa488-oligo-dT45) was added and the reaction incubated at 37° C. for another 40 minutes, after which the plate was read on a Tecan Infinite 200 Pro plate reader equipped with two sets of 485±25 nm/535±35 nm with parallel or perpendicularly-oriented polarization filters. In both steps of the reaction setup, buffer components were maintained at 20 mM HEPES-NaOH (pH 7.5), 2 mM ATP, 10 mM MgCl2, 0.1 mM TCEP-HCl (tris(2-carboxyethyl)phosphine), and 0.25 μM BSA. The final reaction contained 4% DMSO, 0.2 μM RAD51, 30 mM NaCl, 2% glycerol, and 2.22 nM ssDNA substrate. Compound IC50 values were obtained by least-squares regression fitting of appropriate linear, log, or sigmoid dose-response models to the data, with the standard error indicated. […]

RAD51 [4] = molecular target: T1, RAD51; details: while sparing ssDNA binding activity; cited from earlier work
RAD51 foci [5] = details: previously reported; cited from earlier work
[6] = test system: PC-3, Caov-3, SKOV3.ip1, Kuramochi, U2OS cell lines; experiment: Clonogenic survival of tumor cell lines after veliparib, olaparib or ionizing radiation; assay type: cell-based; details: administered immediately after veliparib, present during clonogenic outgrowth, FIGS. 6a-f
Description: FIG. 6A PC-3 cell line treated with veliparib. FIG. 6B Caov-3 cell line treated with veliparib. FIG. 6C Caov-3 cell line treated with olaparib. FIG. 6D SKOV3.ip1 cell line treated with veliparib. FIG. 6E Kuramochi cell line treated with veliparib. FIG. 6F U2OS cell line treated with ionizing radiation (x-rays).
Because 9h inhibits HR-mediated repair of DSBs, the effect of 9h on the sensitization of cancer cells to PARP inhibition or radiation damage was investigated. […] 2.

RAD51 foci [7] = experiment: RAD51 cytological focus formation after irradiation; assay type: cell-based, human; details: 6 hours post-irradiation
Description: Cells were grown on glass coverslips for two days prior to irradiation with X-rays at 1.5 Gy/min using a Philips RT250 Maxitron. Following 6 hours of outgrowth, the adherent cells were incubated in permeabilization buffer (20 mM HEPES-NaOH (pH 7.4), 50 mM NaCl, 3 mM MgCl2, 0.5% Triton X-100, 300 mM sucrose) for 10 minutes at room temperature and then fixed in ice-cold fixation buffer (3% paraformaldehyde, 3.4% sucrose in 1×PBS) for 10 minutes at room temperature. The coverslips were washed 3 times in PBS, incubated in blocking buffer (1% BSA in 1×PBS) for 30 minutes, incubated with rabbit anti-human RAD51 primary antibody (Pacific Immunology) at a 1:1000 dilution in blocking buffer for 18 hours at 4° C., washed 3 times in PBS, incubated with Alexa488-conjugated goat anti-rabbit IgG secondary antibody (Invitrogen) at a 1:1000 dilution in blocking buffer for 1 hour at room temperature, washed 3 times in PBS, air-dried, and mounted onto glass slides in Vectashield with DAPI H-1200 (Vector laboratories). Slides were viewed on a Zeiss Axio Imager.M1 epifluorescence microscope equipped with a CCD camera for acquiring images of at least 100 randomly-selected nuclei per test condition at a representative focal plane within the nuclear volume. Sub-nuclear RAD51 foci were quantified using ImageJ (NIH, Bethesda, Md.) using a custom macro set that automatically counts foci. […]

[8] = Table 3, cells marked ↑: compound stimulates RAD51-ssDNA binding
[9] = Table 3, cells marked ↓: compound inhibits RAD51-ssDNA binding

COc1ccc2c(c1)NC(c1ccc(N(C)C)cc1)c1cccn1-2 (stereo not drawn) [Compound 7, 4-(7-Methoxy-4,5-dihydropyrrolo[1,2-a][13]quinoxalin-4-yl)-N,N-dimethylaniline]
inhibitory activity in the cell-based HR (DR-GFP) assay relative to 1 and 8, in words (293-DR-GFP cells): comparable | D-Loops Max inhibition effect (RAD51 [1]; Table 1): 17% | stability when exposed to air at room temperature [2]: not stable | ssDNA binding IC50 (RAD51 [3]; Table 1, Stim = stimulator): Stim | Emax (RAD51 [3]; Table 1, cells marked ↑: compound stimulates RAD51-ssDNA binding): 47%

C[C@@]12CCC(=O)c3coc(c31)C(=O)c1cc3c(cc12)C(=O)C=CC3=O [Halenaquinone, halenaquinone]
inhibition of RAD51's HR activity in biochemical assays (RAD51 [4]): strongly inhibit | formation of RAD51 foci in human cells following irradiation (RAD51 foci [5]): inhibit

CN(C)c1ccc(-c2nc3cc(O)ccc3n3cccc23)cc1 [Compound 12g, 4-(4-(Dimethylamino)phenyl)pyrrolo[1,2-a]quinoxalin-7-ol]
inhibitory activity in the cell-based HR (DR-GFP) assay relative to 1 and 8, in words (293-DR-GFP cells): comparable or slightly less inhibitory activity | D-Loops Max inhibition effect (RAD51 [1]; Table 3): 91 ± 8% | IC50 (RAD51 [1]; Table 3): 9.8 µM | ssDNA binding IC50 (RAD51 [3]; Table 3, Stim = stimulator): Stim | Emax (RAD51 [3]; [8]): 34 ± 32% | influence on RAD51-ssDNA binding, in words (RAD51 [3]): only weakly influenced

CCNc1ccc(-c2nc3ccccc3n3cccc23)cc1 [Compound 9h, N-ethyl-4-(pyrrolo[1,2-a]quinoxalin-4-yl)aniline]
IC50 (293-DR-GFP cells; Homo sapiens, 24 hours post-transfection, FIG. 5b, read-out: IC50, inhibition of cellular HR): 300 ± 125 nM | inhibition of cellular HR (293-DR-GFP cells; at concentrations that did not inhibit RAD51 foci assembly): more than 90% | D-Loops Max inhibition effect (RAD51 [1]; Table 2): 91 ± 2% | sensitization of cancer cell lines to veliparib, olaparib or irradiation (clonogenic survival) [6]: significantly sensitized | sensitization of cancer cell lines to veliparib, olaparib or irradiation (clonogenic survival) ([6]; listed as RI(dl)-2): significantly sensitizes | Emax (RAD51 [3]; Table 2, cells marked ↑: compound stimulates RAD51-ssDNA binding): 2 ± 24% | influence on RAD51-ssDNA binding, in words (RAD51 [3]): almost no impact | timely assembly of RAD51 into sub-nuclear foci in response to DNA damage (RAD51 foci [7]): did not inhibit

Nc1ccc(-c2nc3cc(O)ccc3n3cccc23)cc1 [Compound 12f, 4-(4-Aminophenyl)pyrrolo[1,2-a]quinoxalin-7-ol]
inhibitory activity in the cell-based HR (DR-GFP) assay relative to 1 and 8, in words (293-DR-GFP cells): comparable or slightly less inhibitory activity | IC50 (RAD51 [1]; Table 3): 8.4 ± 3.4 µM | IC50 (RAD51 [3]; Table 3, Stim = stimulator): 96.9 ± 44.9 µM | Emax (RAD51 [3]; [9]): 82 ± 23% | influence on RAD51-ssDNA binding, in words (RAD51 [3]): modest effects

Nc1ccc(-c2nc3cc(OCCF)ccc3n3cccc23)cc1 [Compound 15b, 4-(7-(2-Fluoroethoxy)pyrrolo[1,2-a]quinoxalin-4-yl)aniline]
IC50 (RAD51 [1]; Table 3): 20 ± 4.1 µM | ssDNA binding IC50 (RAD51 [3]; Table 3, Stim = stimulator): Stim | Emax (RAD51 [3]; [8]): 79 ± 23% | influence on RAD51-ssDNA binding, in words (RAD51 [3]): stimulators; also recorded: modest effects

CN(C)c1ccc(-c2nc3cc(F)ccc3n3cccc23)cc1 [Compound 12j, 4-(7-Fluoropyrrolo[1,2-a]quinoxalin-4-yl)-N,N-dimethylaniline]
D-loop inhibitory activity, in words (RAD51 [1]): nearly absent | ssDNA binding IC50 (RAD51 [3]; Table 3, Stim = stimulator): Stim | Emax (RAD51 [3]; [8]): 57 ± 28%

c1ccc2c(c1)nc(-c1ccncc1)c1cccn12 [Compound 11b, 4-(Pyridin-4-yl)pyrrolo[1,2-a]quinoxaline]
IC50 (RAD51 [1]; Table 2): 79.4 ± 6 µM | D-loop inhibitory activity, in words (RAD51 [1]): moderate | Emax (RAD51 [3]; Table 2, cells marked ↓: compound inhibits RAD51-ssDNA binding): 7 ± 38%

COc1ccc2c(c1)nc(-c1cccnc1)c1cccn12 [Compound 13a, 7-Methoxy-4-(pyridin-3-yl)pyrrolo[1,2-a]quinoxaline]
D-Loops Max inhibition effect (RAD51 [1]; Table 3): 74 ± 5% | IC50 (RAD51 [1]; Table 3): 38.6 ± 6.2 µM | Emax (RAD51 [3]; [9]): 16 ± 28%
